Assay results reported in US20130091932A1, “Process and Method for Broad Spectrum Amino Acid Challenged Urinary Organic Acids” (priority 2011, published 2013).

How the values were obtained:
[1] = system: urinary metabolic markers; test: 38-person study: amino acid challenge, overnight urinary organic acid profile pre vs post challenge; format: in vivo, human; conditions: in some subjects
Method: An initial pilot study was conducted using 3 subjects. A second study was conducted using 38 adult subjects who were chosen as having no diagnosed diseases and normal work habits. […] On two consecutive nights urine was collected for performing analysis of 46 compounds included in a profile of organic acids. On the second night, a single bolus of crystalline pure L-amino acids was consumed dissolved in water. All amino acids used were L-stereoisomers unless designated otherwise by the “D-”prefix. In the 3-person pilot, dosing included tyrosine, valine, leucine, isoleucine, histidine, and tryptophan as free-form or chloride salts at a total load of approximately 400 mg/kg body weight. For the 38-subject study, the dosing formula included a similar mixture containing alanine, valine, leucine, isoleucine, histidine, and tryptophan. Table 1 summarizes the amino acids included in the challenge formula, urinary metabolic markers affected and related nutrients or metabolic effects. The Amino acid challenge dose protocol was as follows. For 2 consecutive nights, participants collected overnight urine specimens. On the second night, before going to bed, they took approximately 400 mg/kg body weight of the challenge dose of amino acids. […]

[2] = up to 15 g, human studies; cited from earlier work

| SMILES | levels of pyruvate, succinate, fumarate and malate [1] | safety of administration [2] |
| --- | --- | --- |
| C[C@H](N)C(=O)O [L-alanine] | increased levels |  |
| N[C@@H](Cc1c[nH]cn1)C(=O)O [L-histidine] |  | administered safely |
